Source: ChEMBL document CHEMBL6103618, “Discovery of Novel Oxazolo[4,3-f]purine Derivatives as Antitumor Agents through PPIA Interaction” (J Med Chem, 2025)
Active and inactive are the calls of the source. The calls are words filed in the database; no cut-off is given here.

Experiments:
HCT-116 [1] = assay: Antiproliferative activity against human HCT-116 cells assessed as inhibition of cell viability incubated for 48 hrs by CCK8 assay; format: functional, cell-based; conditions: HCT-116, 48 h
HCT-116 [2] = assay: Induction of DNA damage in human HCT-116 cells assessed as increase in orange fluorescence incubated for 48 hrs by AO staining based analysis; format: functional, cell-based; conditions: dose 0.3-1.2 µM
HCT-116 [3] = assay: Induction of mitochondrial dysfunction in human HCT-116 cells assessed as decrease in ATP6 level at 0.3 to 1.2 uM by Western blot analysis; format: functional, cell-based; conditions: dose 0.3-1.2 µM
HCT-116 [4] = assay: Induction of mitochondrial dysfunction in human HCT-116 cells at 1.2 uM in presence of NAC by JC-1 dye based analysis; format: functional, cell-based
HCT-116 [5] = assay: Effect on NME1 expression in human HCT-116 cells upto 6 uM incubated for 30 mins followed by pronase addition measured after 30 mins by DARTS assay; format: functional, cell-based; conditions: time 60.0 min
HCT-116 [6] = assay: Induction of apoptosis in human HCT-116 cells assessed as decrease in p-JNK level by Western blot analysis; format: functional, cell-based; conditions: dose 0.3-1.2 µM
HCT-116 [7] = assay: Anti-migration activity in human HCT-116 cells harboring siPPIA-3 at 1.2 uM incubated for 24 hrs by wound healing assay; format: functional, cell-based
[8] = Toxicity in BALB/c mouse implanted with mouse CT26 cells assessed as abnormality in liver at 15 to 45 mg/kg, ip qd treated for 14 days by H and E staining based analysis; format: organism-based; conditions: in vivo, 336 h, dose 15-45 mg/kg, time 14 day

In the case of `C=C(C(=O)OC)N1c2nc(Cl)nc(Cl)c2N2C(c3ccccc3F)OC(C(=O)OCC)(C(=O)OCC)C12` (racemic), the IC50 (HCT-116 [1]) is reported as 510 nM, the Activity (HCT-116 [2]) is reported as “Dose-dependent-effect” and the Activity (HCT-116 [3]) is reported as “Active”. For the same molecule, the Activity (HCT-116 [4]) was “inactive”, the Activity (HCT-116 [5]) was “No effect” and the Activity (HCT-116 [6]) was “Dose-dependent-effect”. For the same molecule, the Activity (HCT-116 [7]) was “inactive” and the Activity [8] was “Non-toxic”.
